Experimental data taken from the supplement of paper PMC5908809.

Legend:
[1] = tested on: normal NK cells expanded with K562-aAPC; experiment: percent inhibition of viability; higher = more inhibition; conditions: 72 h, IL-2 2.5 ng/mL
Method: (§1)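 Drug sensitivity and resistance testing on K562-aAPC-expanded normal NK cells: 5 concentrations (10-fold steps over a 10,000-fold range), 72 h at 37 °C, viability by CellTiter-Glo normalised to DMSO and benzethonium chloride controls; DSS from the fitted curve.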

DERL-7 (IL-2 2.5 ng/mL) [2] = experiment: as above; conditions: 72 h
IMC-1 (IL-2 20 ng/mL) [3] = experiment: as above; conditions: 72 h
KAI3 (IL-2 2.5 ng/mL) [4] = experiment: as above; conditions: 72 h
KHYG-1 (IL-2 2.5 ng/mL) [5] = experiment: as above; conditions: 72 h
NK-92 (IL-2 2.5 ng/mL) [6] = experiment: as above; conditions: 72 h
NK-YS (IL-2 2.5 ng/mL) [7] = experiment: as above; conditions: 72 h
NKL (IL-2 2.5 ng/mL) [8] = experiment: as above; conditions: 72 h
SNK-6 (IL-2 2.5 ng/mL) [9] = experiment: as above; conditions: 72 h
YT (IL-2 2.5 ng/mL) [10] = experiment: as above; conditions: 72 h
[11] = tested on: normal primary NK cells, pool 1 (3 donors) (IL-2 2.5 ng/mL); experiment: as above; conditions: 72 h
[12] = tested on: normal primary NK cells, pool 1 (3 donors), resting (IL-2 0 ng/mL); experiment: as above; conditions: 72 h
[13] = tested on: normal primary NK cells, pool 2 (3 donors) (IL-2 2.5 ng/mL); experiment: as above; conditions: 72 h
[14] = tested on: normal primary NK cells, pool 3 (3 donors) (IL-2 2.5 ng/mL); experiment: as above; conditions: 72 h
[15] = tested on: normal NK cells expanded with K562-aAPC; experiment: drug sensitivity score (DSS) (DSS units); higher = more sensitive; extreme values may be limits of the assay; conditions: 72 h; IL-2 2.5 ng/mL
Method: as §1

DERL-7 (IL-2 2.5 ng/mL) [16] = experiment: as above; conditions: 72 h
IMC-1 (IL-2 20 ng/mL) [17] = experiment: as above; conditions: 72 h
KAI3 (IL-2 2.5 ng/mL) [18] = experiment: as above; conditions: 72 h
KHYG-1 (IL-2 2.5 ng/mL) [19] = experiment: as above; conditions: 72 h
NK-92 (IL-2 2.5 ng/mL) [20] = experiment: as above; conditions: 72 h
NK-YS (IL-2 2.5 ng/mL) [21] = experiment: as above; conditions: 72 h
NKL (IL-2 2.5 ng/mL) [22] = experiment: as above; conditions: 72 h
SNK-6 (IL-2 2.5 ng/mL) [23] = experiment: as above; conditions: 72 h
YT (IL-2 2.5 ng/mL) [24] = experiment: as above; conditions: 72 h
[25] = tested on: normal primary NK cells, pool 1 (3 donors) (IL-2 2.5 ng/mL); experiment: as above; conditions: 72 h
[26] = tested on: normal primary NK cells, pool 1 (3 donors), resting (IL-2 0 ng/mL); experiment: as above; conditions: 72 h
[27] = tested on: normal primary NK cells, pool 2 (3 donors) (IL-2 2.5 ng/mL); experiment: as above; conditions: 72 h
[28] = tested on: normal primary NK cells, pool 3 (3 donors) (IL-2 2.5 ng/mL); experiment: as above; conditions: 72 h

CCCCC/C=C/C=C1/C(=O)C=C[C@@H]1C/C=C\CCCC(=O)O [15D-PGJ2] (max concentration tested 3000 nM)
percent inhibition of viability [%]
Conditions	0.3 nM	3 nM	30 nM	300 nM	3000 nM
DERL-7 (IL-2 2.5 ng/mL) [2]	3.37	-0.28	-1.84	-0.56	14.4
IMC-1 (IL-2 20 ng/mL) [3]	-2.09	2.04	0.05	5.09	1.41
KAI3 (IL-2 2.5 ng/mL) [4]	-4.96	-2.91	-5.31	-1.28	16.5
KHYG-1 (IL-2 2.5 ng/mL) [5]	-5.02	1.78	4.62	3.59	4.59
NK-92 (IL-2 2.5 ng/mL) [6]	-11	-12	-5.46	5.82	13.3
NK-YS (IL-2 2.5 ng/mL) [7]	2.56	5.36	6.24	9.44	10.4
NKL (IL-2 2.5 ng/mL) [8]	-9.35	-3.21	-6.49	3.89	-15.1
SNK-6 (IL-2 2.5 ng/mL) [9]	1.92	3.18	18.9	6.05	19.9
YT (IL-2 2.5 ng/mL) [10]	-2.94	-0.98	-4.25	-6.3	12.1
[1]	-3.92	-2.07	0.09	7.83	19.8
[11]	8.24	-4.33	-3.39	-9.81	14
[12]	6.38	-19	3.5	-8.64	11.8
[13]	-13.3	-1.17	5.71	0.83	16.9
[14]	-15.9	-3.38	4.01	-2.88	14.8

Conditions	drug sensitivity score
DERL-7 (IL-2 2.5 ng/mL) [16]	0.17
IMC-1 (IL-2 20 ng/mL) [17]	0
KAI3 (IL-2 2.5 ng/mL) [18]	0.28
KHYG-1 (IL-2 2.5 ng/mL) [19]	0
NK-92 (IL-2 2.5 ng/mL) [20]	0.46
NK-YS (IL-2 2.5 ng/mL) [21]	0
NKL (IL-2 2.5 ng/mL) [22]	0
SNK-6 (IL-2 2.5 ng/mL) [23]	1.74
YT (IL-2 2.5 ng/mL) [24]	0.01
[15]	1.44
[25]	0.07
[26]	0
[27]	0.45
[28]	0.13
